Legend:
[1] = target: Mitogen-activated protein kinase kinase kinase kinase 5 (Homo sapiens) (UniProt Q9Y4K4); assay: Binding affinity to wild type partial length human MAP4K5 (M1 to P297) expressed in Bacterial expression system assessed as residual activity at 100 nM measured by Kinomescan assay relative to control
[2] = target: Mitogen-activated protein kinase kinase kinase 20 (Homo sapiens) (UniProt Q9NYL2); assay: Binding affinity to wild type partial length human ZAK (M1 to L331) expressed in bacterial expression system assessed as residual activity at 100 nM measured by Kinomescan assay
Sequence of Mitogen-activated protein kinase kinase kinase 20 (Homo sapiens) (Q9NYL2 2-800 limits assumed): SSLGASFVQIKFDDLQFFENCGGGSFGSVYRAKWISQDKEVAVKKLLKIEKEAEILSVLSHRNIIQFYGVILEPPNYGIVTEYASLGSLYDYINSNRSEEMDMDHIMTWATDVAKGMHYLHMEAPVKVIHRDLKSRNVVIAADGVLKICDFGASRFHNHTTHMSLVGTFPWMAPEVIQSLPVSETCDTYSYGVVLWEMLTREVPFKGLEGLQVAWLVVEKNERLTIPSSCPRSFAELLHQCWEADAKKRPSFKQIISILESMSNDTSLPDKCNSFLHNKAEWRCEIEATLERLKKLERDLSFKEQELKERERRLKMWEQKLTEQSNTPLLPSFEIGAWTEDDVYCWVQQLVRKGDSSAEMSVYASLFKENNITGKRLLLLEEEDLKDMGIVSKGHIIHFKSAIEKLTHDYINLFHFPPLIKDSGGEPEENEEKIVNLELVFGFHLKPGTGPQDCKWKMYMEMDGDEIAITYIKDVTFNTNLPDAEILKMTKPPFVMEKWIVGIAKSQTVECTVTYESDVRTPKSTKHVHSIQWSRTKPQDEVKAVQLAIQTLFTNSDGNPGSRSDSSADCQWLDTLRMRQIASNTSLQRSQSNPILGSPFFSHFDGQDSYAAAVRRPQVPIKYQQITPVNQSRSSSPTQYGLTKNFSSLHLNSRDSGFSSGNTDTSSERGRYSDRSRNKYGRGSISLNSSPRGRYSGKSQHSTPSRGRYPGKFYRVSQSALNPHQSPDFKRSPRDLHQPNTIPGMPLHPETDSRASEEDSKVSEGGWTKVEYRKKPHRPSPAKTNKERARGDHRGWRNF

[3] = target: T1, Dual specificity mitogen-activated protein kinase kinase 7 (Homo sapiens) (UniProt O14733); assay: Binding affinity to wild type full length human MKK7 (M1 to R419 residues) expressed in mammalian expression system assessed as residual activity at 100 nM measured by Kinomescan assay
T1 sequence (whole entry): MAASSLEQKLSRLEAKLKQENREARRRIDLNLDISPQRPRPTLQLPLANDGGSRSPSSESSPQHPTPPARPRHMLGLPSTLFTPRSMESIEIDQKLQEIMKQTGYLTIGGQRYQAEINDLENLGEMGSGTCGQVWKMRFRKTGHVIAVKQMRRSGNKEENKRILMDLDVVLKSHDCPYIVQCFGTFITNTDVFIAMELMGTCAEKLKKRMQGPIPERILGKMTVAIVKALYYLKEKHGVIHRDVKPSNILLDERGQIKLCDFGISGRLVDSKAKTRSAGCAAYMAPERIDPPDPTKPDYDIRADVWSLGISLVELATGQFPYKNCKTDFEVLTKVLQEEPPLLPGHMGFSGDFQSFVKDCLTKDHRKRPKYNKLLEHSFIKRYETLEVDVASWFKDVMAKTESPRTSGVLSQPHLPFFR

Sequence of Mitogen-activated protein kinase kinase kinase kinase 5 (Homo sapiens) (Q9Y4K4 whole entry, looked up): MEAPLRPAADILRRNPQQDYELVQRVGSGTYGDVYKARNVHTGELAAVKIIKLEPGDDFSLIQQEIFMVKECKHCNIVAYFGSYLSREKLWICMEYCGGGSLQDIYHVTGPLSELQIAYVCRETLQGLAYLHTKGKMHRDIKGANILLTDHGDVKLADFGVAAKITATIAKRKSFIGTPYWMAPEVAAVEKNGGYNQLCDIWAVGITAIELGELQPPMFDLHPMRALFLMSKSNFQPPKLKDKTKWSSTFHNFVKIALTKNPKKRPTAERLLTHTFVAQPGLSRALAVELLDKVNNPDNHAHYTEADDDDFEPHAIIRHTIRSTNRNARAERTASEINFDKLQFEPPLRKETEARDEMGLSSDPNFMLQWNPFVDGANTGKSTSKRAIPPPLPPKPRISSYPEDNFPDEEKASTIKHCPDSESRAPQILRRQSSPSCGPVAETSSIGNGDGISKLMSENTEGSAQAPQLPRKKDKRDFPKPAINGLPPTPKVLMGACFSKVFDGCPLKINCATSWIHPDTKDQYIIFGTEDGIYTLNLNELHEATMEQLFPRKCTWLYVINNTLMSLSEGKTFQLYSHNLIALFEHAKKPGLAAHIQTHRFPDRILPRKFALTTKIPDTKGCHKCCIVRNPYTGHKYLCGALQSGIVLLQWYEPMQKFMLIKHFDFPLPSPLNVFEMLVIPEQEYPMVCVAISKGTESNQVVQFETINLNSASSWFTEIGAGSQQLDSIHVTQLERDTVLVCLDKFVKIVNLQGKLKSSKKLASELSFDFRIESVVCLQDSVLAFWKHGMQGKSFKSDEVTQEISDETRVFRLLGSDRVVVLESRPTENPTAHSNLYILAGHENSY

SMILES	Activity [1] [%]	Activity [2] [%]	Activity [3] [%]
CCCS(=O)(=O)Nc1ccc(F)c(C(=O)c2c[nH]c3ncc(-c4ccc(F)cc4C)cc23)c1F	100	14	100
CCCS(=O)(=O)Nc1cccc(C(=O)c2c[nH]c3ncc(-c4ccc(Cl)cc4)cc23)c1C	40	–	91
CCCS(=O)(=O)Nc1ccc(F)c(C(=O)c2c[nH]c3ncc(-c4ccc(F)cc4Cl)cc23)c1F	100	19	100
CCCS(=O)(=O)Nc1ccc(F)c(C(=O)c2c[nH]c3ncc(-c4ccccc4C)cc23)c1F	67	6.9	100
O=C(c1cccc(NS(=O)(=O)Cc2ccccc2)c1F)c1c[nH]c2ncc(-c3ccc(Cl)cc3)cc12	72	66	97
CCCS(=O)(=O)Nc1ccc(F)c(C(=O)c2c[nH]c3ncc(-c4ncccn4)cc23)c1F	92	39	90
CCCS(=O)(=O)Nc1ccc(F)c(C(=O)c2c[nH]c3ncc(-c4ccc5c(c4)OCCO5)cc23)c1F	84	2.2	100
CCCS(=O)(=O)Nc1ccc(F)c(C(=O)c2c[nH]c3ncc(-c4ccc(OC)cc4F)cc23)c1F	–	6	85
CCCS(=O)(=O)Nc1ccc(F)c(C(=O)c2c[nH]c3ncc(-c4ccc(F)cc4F)cc23)c1F	–	5.9	93
CCCS(=O)(=O)Nc1ccc(F)c(C(=O)c2c[nH]c3ncc(-c4ccc(OC)cc4C)cc23)c1F	–	13	97

The remaining lines, values ahead:

Activity [1] [%]	Activity [2] [%]	Activity [3] [%]	SMILES
29	0.5	100	CCCS(=O)(=O)Nc1ccc(F)c(C(=O)c2c[nH]c3ncc(-c4ccccc4)cc23)c1F
–	2.9	86	CCCS(=O)(=O)Nc1ccc(F)c(C(=O)c2c[nH]c3ncc(-c4ccccc4F)cc23)c1F
83	4.9	83	O=C(c1c(F)ccc(NS(=O)(=O)c2ccccc2)c1F)c1c[nH]c2ncc(-c3ccc(Cl)cc3)cc12
100	53	97	O=C(c1c(F)ccc(NS(=O)(=O)CCc2ccccc2)c1F)c1c[nH]c2ncc(-c3ccc(Cl)cc3)cc12
63	2.6	87	CS(=O)(=O)Nc1ccc(F)c(C(=O)c2c[nH]c3ncc(-c4ccc(Cl)cc4)cc23)c1F
80	1.4	100	O=C(c1c(F)ccc(NS(=O)(=O)CCCF)c1F)c1c[nH]c2ncc(-c3ccc(Cl)cc3)cc12
99	73	81	CCCCCCS(=O)(=O)Nc1ccc(F)c(C(=O)c2c[nH]c3ncc(-c4ccc(Cl)cc4)cc23)c1F
100	58	75	COCCS(=O)(=O)Nc1ccc(F)c(C(=O)c2c[nH]c3ncc(-c4ccc(Cl)cc4)cc23)c1F
–	23	97	O=C(c1c(F)ccc(NS(=O)(=O)Cc2ccccc2F)c1F)c1c[nH]c2ncc(-c3ccc(Cl)cc3)cc12
38	–	70	CCCS(=O)(=O)Nc1ccc(F)c(C(=O)c2c[nH]c3ncc(-c4ccc(OC)cc4)cc23)c1F
–	64	100	Cc1cccc(CS(=O)(=O)Nc2ccc(F)c(C(=O)c3c[nH]c4ncc(-c5ccc(Cl)cc5)cc34)c2F)c1
–	36	99	O=C(c1c(F)ccc(NS(=O)(=O)Cc2cccc(F)c2)c1F)c1c[nH]c2ncc(-c3ccc(Cl)cc3)cc12

From ChEMBL document CHEMBL4813918, “From off-to on-target: New BRAF-inhibitor-template-derived compounds selectively targeting mitogen activated protein kinase kinase 4 (MKK4)” (Eur J Med Chem, 2021)
